According to ChEMBL document CHEMBL1130186, “Potent alpha 4 beta 1 peptide antagonists as potential anti-inflammatory agents” (J Med Chem, 1997):
pIC50: −log10 of the molar value. Where a SMILES comes first, the peptide text is derived from it. Bridges are numbered along the chain shown (N, C = ends). [ ]: non-standard residue; d: D form. The star is where a group is joined. ξ: configuration not given here. Oic(3aξ,7aξ) = O=C(O)[C@@H]1CC2CCCCC2N1; Fmoc = O=C(OCC1c2ccccc2-c2ccccc21)*; mTyr = N[C@@H](Cc1cccc(O)c1)C(=O)O; 2Naphthoyl = O=C(c1ccc2ccccc2c1)*; Cha = N[C@@H](CC1CCCCC1)C(=O)O; X2 = O=C(c1cccc2cc(O)ccc12)*; 3Abz = Nc1cccc(C(=O)O)c1; 2Abz = Nc1ccccc1C(=O)O; Ava = NCCCCC(=O)O; GABA = NCCCC(=O)O

What was measured:
[1] = target: T1, Integrin alpha-4/beta-1 (Homo sapiens, UniProt P05556+P13612); test: Inhibition of alpha4-beta1 binding to VCAM-1 in ELISA.; assay type: protein-complex assay
T1 sequence (P05556 whole entry): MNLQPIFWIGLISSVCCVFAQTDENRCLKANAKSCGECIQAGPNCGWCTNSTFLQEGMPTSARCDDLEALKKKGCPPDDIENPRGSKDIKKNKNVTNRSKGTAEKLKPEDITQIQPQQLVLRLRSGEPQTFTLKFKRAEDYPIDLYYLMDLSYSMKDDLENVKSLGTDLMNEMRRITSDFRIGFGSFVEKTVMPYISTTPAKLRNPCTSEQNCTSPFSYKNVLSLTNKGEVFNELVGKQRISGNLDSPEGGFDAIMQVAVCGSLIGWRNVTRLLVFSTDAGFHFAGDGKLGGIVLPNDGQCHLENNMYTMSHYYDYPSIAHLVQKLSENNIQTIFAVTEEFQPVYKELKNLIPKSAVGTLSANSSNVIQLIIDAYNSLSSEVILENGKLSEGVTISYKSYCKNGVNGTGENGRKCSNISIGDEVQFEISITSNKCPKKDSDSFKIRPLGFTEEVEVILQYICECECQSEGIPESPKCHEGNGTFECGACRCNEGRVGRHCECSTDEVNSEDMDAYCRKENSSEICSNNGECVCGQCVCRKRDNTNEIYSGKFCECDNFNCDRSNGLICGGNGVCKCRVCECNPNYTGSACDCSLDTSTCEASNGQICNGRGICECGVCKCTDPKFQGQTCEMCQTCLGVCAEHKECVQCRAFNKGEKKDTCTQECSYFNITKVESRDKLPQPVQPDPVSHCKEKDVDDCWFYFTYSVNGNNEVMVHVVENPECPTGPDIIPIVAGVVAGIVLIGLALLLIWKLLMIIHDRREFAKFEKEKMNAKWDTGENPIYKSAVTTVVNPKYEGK
T1 sequence (P13612 whole entry): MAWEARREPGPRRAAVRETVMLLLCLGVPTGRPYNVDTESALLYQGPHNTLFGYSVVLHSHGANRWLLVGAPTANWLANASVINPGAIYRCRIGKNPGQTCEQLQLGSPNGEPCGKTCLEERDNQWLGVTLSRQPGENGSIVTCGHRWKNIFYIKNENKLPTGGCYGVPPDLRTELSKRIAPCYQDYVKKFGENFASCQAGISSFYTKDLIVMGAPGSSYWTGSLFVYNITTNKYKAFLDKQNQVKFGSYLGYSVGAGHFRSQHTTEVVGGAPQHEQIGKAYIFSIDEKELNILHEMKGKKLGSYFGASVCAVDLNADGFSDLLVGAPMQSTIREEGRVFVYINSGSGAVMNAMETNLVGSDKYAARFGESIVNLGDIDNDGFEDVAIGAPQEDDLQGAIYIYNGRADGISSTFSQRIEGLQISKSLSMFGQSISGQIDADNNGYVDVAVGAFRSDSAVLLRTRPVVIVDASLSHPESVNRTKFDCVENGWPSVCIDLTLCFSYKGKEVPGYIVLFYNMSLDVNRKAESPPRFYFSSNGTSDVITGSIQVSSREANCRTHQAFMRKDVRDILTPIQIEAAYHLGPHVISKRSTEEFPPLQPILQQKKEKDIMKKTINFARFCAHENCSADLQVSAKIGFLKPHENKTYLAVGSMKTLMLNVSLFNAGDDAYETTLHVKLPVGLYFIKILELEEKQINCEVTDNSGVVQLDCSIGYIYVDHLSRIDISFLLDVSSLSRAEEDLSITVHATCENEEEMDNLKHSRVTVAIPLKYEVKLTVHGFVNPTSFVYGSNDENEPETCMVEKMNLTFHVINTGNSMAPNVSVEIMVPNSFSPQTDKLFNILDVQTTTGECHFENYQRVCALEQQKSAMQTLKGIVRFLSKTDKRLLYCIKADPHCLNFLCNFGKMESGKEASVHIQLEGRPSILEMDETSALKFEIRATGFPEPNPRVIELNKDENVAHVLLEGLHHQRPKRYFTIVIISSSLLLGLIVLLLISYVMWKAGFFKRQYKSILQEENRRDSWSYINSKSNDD

[2] = target: T1, Integrin alpha-4/beta-1; test: Inhibition of fluorescently labeled alpha4-beta1 positive Ramos cells binding to immobilized VCAM-1.; assay type: cell-based
[3] = target: T1, Integrin alpha-4/beta-1; test: Inhibition of purified alpha-4 beta-1 binding to VCAM-1 was determined in an ELISA assay.; assay type: protein-complex assay

| SMILES | pIC50 [1] | pIC50 [2] | pIC50 [3] |
| --- | --- | --- | --- |
| N[C@@H](Cc1ccc(O)cc1)C(=O)N[C@H]1CSSC[C@@H](C(=O)O)NC(=O)c2cccc(c2)NC1=O (H-YC[3Abz]C-OH; disulfide 2-4) | 8.10 |  |  |
| NC(N)=NCCC[C@H](N)C(=O)N[C@H]1CSSC[C@@H](C(=O)O)NC(=O)[C@@H]2CCCN2C(=O)[C@H](CC(=O)O)NC1=O (H-RCDPC-OH; disulfide 2-5) | 5.43 | 4.10 |  |
| O=C(N[C@H]1CSSC[C@@H](C(=O)O)NC(=O)[C@@H]2CCCN2C(=O)[C@H](CO)NC1=O)c1ccc2ccccc2c1 (2Naphthoyl-CSPC-OH; disulfide 1-4) |  | 5.44 | 7.27 |
| NCCCC[C@H](N)C(=O)N[C@H]1CSSC[C@@H](C(=O)O)NC(=O)[C@@H]2CCCN2C(=O)[C@H](CC(=O)O)NC1=O (H-KCDPC-OH; disulfide 2-5) |  | 3.00 | 3.60 |
| N[C@@H](Cc1ccc(O)cc1)C(=O)N[C@H]1CSSC[C@@H](C(=O)O)NC(=O)CNC1=O (H-YCGC-OH; disulfide 2-4) |  | 3.60 | 5.24 |
| NCCCC[C@H](NC(=O)[C@@H](N)Cc1ccc(O)cc1)C(=O)N[C@H]1CSSC[C@@H](C(=O)O)NC(=O)[C@@H]2CCCN2C(=O)[C@H](CC(=O)O)NC1=O (H-YKCDPC-OH; disulfide 3-6) |  | 5.30 | 6.82 |
| CC(=O)N[C@@H](Cc1ccc(O)cc1)C(=O)N[C@H]1CSSC[C@@H](C(=O)O)NC(=O)[C@@H]2CCCN2C(=O)[C@H](CO)NC1=O (Ac-YCSPC-OH; disulfide 2-5) |  | 6.92 | 8.70 |
| N[C@@H](Cc1ccc(O)cc1)C(=O)N[C@H]1CSSC[C@@H](C(=O)O)NC(=O)CCCCNC1=O (H-YC[Ava]C-OH; disulfide 2-4) |  | 4.77 | 6.39 |
| O=C(N[C@H]1CSSC[C@@H](C(=O)O)NC(=O)[C@@H]2CCCN2C(=O)[C@H](CO)NC1=O)c1cccc2cc(O)ccc12 (X2-CSPC-OH; disulfide 1-4) |  | 4.40 | 5.96 |
| CC(=O)N[C@@H](CCCN=C(N)N)C(=O)N[C@H]1CSSC[C@@H](C(=O)O)NC(=O)[C@@H]2CCCN2C(=O)[C@H](CC(=O)O)NC1=O (Ac-RCDPC-OH; disulfide 2-5) |  | 4.40 | 5.89 |
| NC(N)=NCCC[C@H](NC(=O)[C@@H](N)Cc1ccccc1)C(=O)N[C@H]1CSSC[C@@H](C(=O)O)NC(=O)[C@@H]2CCCN2C(=O)[C@H](CC(=O)O)NC1=O (H-FRCDPC-OH; disulfide 3-6) |  | 4.00 | 5.68 |
| N[C@@H](Cc1ccc(O)cc1)C(=O)N[C@H]1CSSC[C@@H](C(=O)O)NC(=O)CCCNC1=O (H-YC[GABA]C-OH; disulfide 2-4) |  | 6.00 | 7.42 |
| N[C@@H](Cc1ccc(O)cc1)C(=O)N[C@H]1CSSC[C@@H](C(=O)O)NC(=O)c2ccccc2NC1=O (H-YC[2Abz]C-OH; disulfide 2-4) |  | 4.10 | 5.89 |
| N[C@@H](Cc1cccc(O)c1)C(=O)N[C@H]1CSSC[C@@H](C(=O)O)NC(=O)[C@@H]2CCCN2C(=O)[C@H](CO)NC1=O (H-[mTyr]CSPC-OH; disulfide 2-5) |  | 4.60 | 6.60 |
| C[C@@H]1NC(=O)[C@@H](NC(=O)[C@@H](N)Cc2ccc(O)cc2)CSSC[C@@H](C(=O)O)NC(=O)[C@@H]2CC3CCCCC3N2C1=O (stereo not given in full) (H-YCA[Oic(3aξ,7aξ)]C-OH; disulfide 2-5) |  | 5.33 | 7.70 |
| C[C@@H]1NC(=O)[C@@H](NC(=O)[C@@H](N)Cc2ccc(O)cc2)CSSC[C@@H](C(=O)O)NC(=O)[C@H](CC2CCCCC2)NC1=O (H-YCA[Cha]C-OH; disulfide 2-5) |  | 4.60 | 6.85 |
| C[C@@H]1NC(=O)[C@@H](NC(=O)[C@H](CCCN=C(N)N)NC(=O)[C@@H](N)Cc2ccc(O)cc2)CSSC[C@@H](C(=O)O)NC(=O)[C@@H]2CCCN2C1=O (H-YRCAPC-OH; disulfide 3-6) |  | 5.10 | 7.22 |
| N[C@@H](Cc1ccc(O)cc1)C(=O)N[C@H]1CSSC[C@@H](C(=O)O)NC(=O)C2CCC(CC2)CNC1=O |  | 4.72 | 7.00 |
| N=C(N)NCCC[C@H](NC(=O)OCC1c2ccccc2-c2ccccc21)C(=O)N[C@H]1CSSC[C@@H](C(=O)O)NC(=O)[C@@H]2CCCN2C(=O)[C@H](CC(=O)O)NC1=O (Fmoc-RCDPC-OH; disulfide 2-5) |  | 4.82 | 6.89 |
| N=C(N)NCCC[C@H](NC(=O)[C@@H](N)Cc1ccc(O)cc1)C(=O)N[C@H]1CSSC[C@@H](C(=O)O)NC(=O)[C@@H]2CCCN2C(=O)[C@H](CCC(=O)O)NC1=O (H-YRCEPC-OH; disulfide 3-6) |  | 4.52 | 7.05 |
| CC1CNC(=O)[C@@H](NC(=O)[C@@H](N)Cc2ccc(O)cc2)CSSC[C@@H](C(=O)O)NC1=O (stereo not given in full) |  | 5.57 | 7.33 |
| N=C(N)NCCC[C@H](NC(=O)[C@@H](N)Cc1c[nH]c2ccccc12)C(=O)N[C@H]1CSSC[C@@H](C(=O)O)NC(=O)[C@@H]2CCCN2C(=O)[C@H](CC(=O)O)NC1=O (H-WRCDPC-OH; disulfide 3-6) |  | 4.00 | 5.92 |
| N[C@@H](Cc1ccccc1)C(=O)N[C@H]1CSSC[C@@H](C(=O)O)NC(=O)[C@@H]2CCCN2C(=O)[C@H](CO)NC1=O (H-FCSPC-OH; disulfide 2-5) |  | 4.82 | 5.82 |
